Assay results: US8729047B2, “Compositions for inhibiting redox-sensitive GTPases” (Board of Regents, The University of Texas System, priority 2010, dated 2014)
Where two headings read alike, the source gives them in different places.

How the values were obtained:
SUM149 cells = test: Matrigel invasion (cell motility) assay; type: cell-based, human; conditions: FIG. 14A
Text: (§1) FIG. 14. Determination of cell invasiveness in the presence and absence of thiopurines and/or redox agents. […] Western blot analysis representing the total expression of RhoC in these cells also is shown. (B) Experimental procedures for the determination of the time-dependent motility of cells using the QCM Cell Invasion Assay kit in the presence and absence of 6-TG and DETA/NO are described elsewhere herein.
(§2) The top chamber of a Transwell filter (6.5 mm with 8 μm pores, Costar; Corning, N.Y.) was coated with a 10 μL aliquot of 10 mg/mL Matrigel, and the lower chamber of the Transwell was filled with either serum-free or serum-containing media. Sample cells were prepared to resuspend cells in a serum-free medium with 0.1% BSA at a concentration of 4×10^5 cells/mL. […] The Transwell filters were fixed with methanol, stained with haematoxylin and eosin, and cells in the serum-containing samples were counted. The number of cells that had invaded the serum-free, medium-containing lower chambers was used as a control background.

HME-C20S RhoC cells = test: Matrigel invasion (cell motility) assay; type: cell-based, human; conditions: FIG. 14A
Text: as §1, §2

RhoC C20S = RhoC C20S (Homo sapiens, UniProt P08134, C20S); test: RhoC expression (Western) and RhoC activity assay in cells; type: cell-based; design: expressed in transfected cells; host or cells: human mammary epithelial (HME) cells; conditions: HME-C20S RhoC cells, 6-TG three days
Chain of RhoC C20S (P08134 whole entry C20S): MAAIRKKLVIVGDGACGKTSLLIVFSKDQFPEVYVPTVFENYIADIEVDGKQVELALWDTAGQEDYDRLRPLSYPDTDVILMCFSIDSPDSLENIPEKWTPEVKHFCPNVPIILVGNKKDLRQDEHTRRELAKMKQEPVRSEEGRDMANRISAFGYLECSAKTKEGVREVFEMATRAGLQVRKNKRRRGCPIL
Procedure: as §1
Cells were lysed in an extraction buffer containing 50 mM NaCl, 5 mM MgCl2, 1 mM ethylenediaminetetraacetic acid (EDTA), 0.1 mM diethylenetriaminepentaacetic acid (DTPA), and 0.1% NP40 in 150 mM TrisHCl (pH 8.0). The content of […] RhoC in cells then was determined by using Western analysis that relies on a monoclonal anti-RhoC antibody (Biocompare, South San Francisco, Calif.). To determine RhoC activity, the colorimetric RhoA activation assay Biochem Kit (Cytoskeleton, Denver, Colo.) was used essentially as described in the previous study (Hall et al. Neoplasia 10, 797-803 (2008)) except that the RhoC specific antibody (vide supra), instead of the RhoA antibody included in the assay kit, was used for this analysis.

RhoA = biological target: T1, RhoA (Homo sapiens, UniProt P61586); test: Guanine nucleotide exchange of [3H]GDP-loaded GTPase with 6-TGDP (FIG. 13A); type: binding
T1 construct: made in house; host or cells: E. coli
T1 sequence (P61586 whole entry, species assumed): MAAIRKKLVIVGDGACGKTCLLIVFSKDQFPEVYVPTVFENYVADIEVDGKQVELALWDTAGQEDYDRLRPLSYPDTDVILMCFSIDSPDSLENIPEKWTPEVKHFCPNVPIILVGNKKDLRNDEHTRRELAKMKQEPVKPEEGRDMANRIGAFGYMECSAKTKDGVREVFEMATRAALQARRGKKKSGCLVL
Procedure: (§3) FIG. 13. Guanine nucleotide exchange of small GTPases with 6-TGDP. (A) To monitor 6-TGDP-mediated GTPase GDP dissociation, [^3H]GDP-loaded GTPase (1 μM) was incubated with 6-TGDP (0-2000 μM) for 1 h. (B) To monitor GTPase 6-TGDP dissociation by GDP (0-2000 μM) in the presence and absence of dithiothreitol (DTT), 6-TGDP-loaded GTPase (˜1 μM) was treated with .NO2 (˜3 μM) under anaerobic conditions and was incubated with various concentrations of [^3H]GDP (0-2000 μM) in the presence and absence of DTT (10 mM) for 1 h. For all assays, aliquots were withdrawn and spotted onto nitrocellulose filters. The filters were then washed three times with an assay buffer, and radioactivity was determined using a Beckman-Coulter scintillation counter. The resultant radioactivity (dpm) values associated with GTPase-bound [^3H]GDP were converted into the fraction of mol nucleotide per mol total GTPase. The data presented represent mean and standard error values from triplicate measurements. The apparent dissociation constants (appKD values) of GTPase 6-TGDP association ([^3H]GDP dissociation, A); and 6-TGDP dissociation ([3H]GDP association, B) were obtained by fitting the data to a simple dissociation and association, respectively. […]
(§4) A kinetic assay method using radiolabeled GDP ([^3H]GDP) was established. The apparent dissociation constants (^appKD 6-TGDP) of Rho GTPases (including RhoA, Cdc42, and Rac1/2/3) and Ras with 6-TGDP were determined (FIG. 13). […]
(§5) The true dissociation constant (^trueKD 6-TGDP) of Ras, RhoC, RhoA and Rac1 for 6-TGDP was then calculated to be ˜20.7 pM, 212 μM, 208 μM, and 158 μM [6-TGDP] by using a compensation equation, ^trueKD 6-TGDP=^appKD 6-TGDP/(1+[GDP]/^trueKD GDP) (95), in conjunction with the values given [(^appKD 6-TGDP of Ras, RhoC, RhoA, and Rac1=2300, 230, 224, and 245 μM (FIG. 13) and ^trueKD GDP=9 pM, 12 μM, 13 μM and 1.8 μM, respectively. The ^trueKD GDP of Ras, RhoA and Rac1 was determined previously (Lenzen et al. Biochemistry 37, 7420-7430 (1998); Heo et al. Biochemistry 44, 6573-6585 (2005)) and the ^trueKD GDP of RhoC was further determined. […]

Ras = Ras (Homo sapiens, UniProt P01112); test: as above; type: binding; conditions: [3H]GDP-loaded GTPase 1 μM, 6-TGDP 0-2000 μM, 1 h, read-out: appKD for 6-TGDP
Chain of Ras (P01112 whole entry): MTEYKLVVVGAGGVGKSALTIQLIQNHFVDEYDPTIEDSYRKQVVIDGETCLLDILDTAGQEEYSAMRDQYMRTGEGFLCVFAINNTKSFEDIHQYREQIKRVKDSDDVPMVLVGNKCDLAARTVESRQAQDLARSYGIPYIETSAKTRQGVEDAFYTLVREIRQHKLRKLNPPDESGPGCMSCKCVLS
Procedure: as §3, §4, §5

Rac1 [1] = biological target: T2, Rac1 (Homo sapiens, UniProt P63000); design: made in house; host or cells: E. coli; conditions: determined previously; read-out: trueKD GDP; cited from earlier work
Rac1 [2] = biological target: T2, Rac1; design: made in house; host or cells: E. coli; conditions: known value (Morgan et al.); read-out: trueKD for GDP; cited from earlier work

With Nc1nc2nc[nH]c2c(=S)[nH]1 [6-TG, 6-thioguanine] the cell motility (SUM149 cells; 6-TG 1 μM alone, three or more consecutive days) was “gradual but significant diminution of cell motility”, the invasive cell motility (SUM149 cells; 6-TG 1 μM with DETA/NO (or GSNO) 10 μM, three days) was “complete termination of the invasive cell motility” and the “effect on motility compared with SUM149 and HME-RhoC cells” value (HME-C20S RhoC cells; 6-TG alone, three days) was “insignificant”. The “effect on C20S RhoC activity and invasive cell motility” value (HME-C20S RhoC cells; 6-TG with a NO donor, compared with either alone) was “lack of a significant effect” and the “activity and total expression of RhoC C20S” value (RhoC C20S) was “unchanged”.
For Nc1nc2c(ncn2[C@@H]2O[C@H](COP(=O)(O)OP(=O)(O)O)[C@@H](O)[C@H]2O)c(=S)[nH]1 [6-TGDP, 6-thioguanosine diphosphate], the Kd (RhoA; [3H]GDP-loaded GTPase 1 μM, 6-TGDP 0-2000 μM, 1 h, FIG. 13A, read-out: appKD for 6-TGDP) was 224 µM, the Kd (RhoA; calculated by compensation equation from appKD 6-TGDP and trueKD GDP, read-out: trueKD 6-TGDP) was 208 µM and the Kd (Ras) was 2300 µM.
In the case of Nc1nc2c(ncn2[C@@H]2O[C@H](COP(=O)(O)OP(=O)(O)O)[C@@H](O)[C@H]2O)c(=O)[nH]1 [GDP], the Kd (Rac1 [1]) is listed as 1.8 µM and the Kd (Rac1 [2]) is listed as 1.8 µM.
